From publication PMC7339037 (Journal of medicinal chemistry, 2017)

Columns and labels:
[1] = biological target: RPA (replication protein A) (Homo sapiens, UniProt P27694); test: RPA-based EMSA; type: binding; conditions: at 10 μM
Solubility = type: physicochemical
full length human XPA = full length human XPA (Homo sapiens, UniProt P23025); test: EMSA, binding of full length human XPA to a cisplatin-modified DNA
Chain of full length human XPA (P23025 whole entry): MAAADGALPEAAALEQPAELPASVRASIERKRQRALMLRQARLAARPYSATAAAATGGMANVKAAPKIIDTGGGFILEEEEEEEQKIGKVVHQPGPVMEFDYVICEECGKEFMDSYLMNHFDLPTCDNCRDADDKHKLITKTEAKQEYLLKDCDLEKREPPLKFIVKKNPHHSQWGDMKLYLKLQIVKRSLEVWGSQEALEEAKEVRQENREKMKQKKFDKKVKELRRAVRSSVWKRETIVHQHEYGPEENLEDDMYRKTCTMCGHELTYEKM

Chain of RPA (replication protein A) (P27694 whole entry): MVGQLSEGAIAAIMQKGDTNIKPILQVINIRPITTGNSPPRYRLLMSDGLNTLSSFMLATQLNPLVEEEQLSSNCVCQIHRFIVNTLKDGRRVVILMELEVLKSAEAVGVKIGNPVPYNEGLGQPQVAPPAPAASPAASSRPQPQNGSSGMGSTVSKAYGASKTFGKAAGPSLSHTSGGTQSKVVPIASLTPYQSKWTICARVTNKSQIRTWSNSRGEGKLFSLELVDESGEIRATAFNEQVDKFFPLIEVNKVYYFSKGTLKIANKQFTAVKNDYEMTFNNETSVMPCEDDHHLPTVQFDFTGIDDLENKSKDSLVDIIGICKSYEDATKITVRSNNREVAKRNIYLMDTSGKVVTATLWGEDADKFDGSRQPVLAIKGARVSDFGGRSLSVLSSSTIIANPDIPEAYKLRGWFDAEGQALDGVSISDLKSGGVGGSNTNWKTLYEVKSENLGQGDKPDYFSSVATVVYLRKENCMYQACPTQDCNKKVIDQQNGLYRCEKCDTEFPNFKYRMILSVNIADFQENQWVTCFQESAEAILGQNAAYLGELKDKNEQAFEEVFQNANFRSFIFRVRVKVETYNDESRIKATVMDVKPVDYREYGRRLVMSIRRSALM

| RPA inhibition [1] | solubility (in words) (Solubility) | Compound | XPA inhibitory activity (in words) (full length human XPA) |
| --- | --- | --- | --- |
|  | dramatically increased solubility | CC1=NN(c2cccc(C(=O)O)c2)C(=O)/C1=C\c1ccc(-c2ccc(Cl)c(C(=O)NCc3ccc(F)cc3)c2)o1 [Compound 34a, (Z)-3-(4-((5-(4-Chloro-3-((4-fluorobenzyl)carbamoyl)phenyl)furan-2-yl)methylene)-3-methyl-5-oxo-4,5-dihydro-1H-pyrazol-1-yl)-benzoic Acid] |  |
| no RPA inhibition |  | CC1=NN(c2ccc(C(=O)O)cc2)C(=O)/C1=C\c1ccc(-c2ccc(Cl)c(C(=O)NCc3ccc(F)cc3)c2)o1 [Compound 34i, (Z)-4-(4-((5-(4-Chloro-3-((4-fluorobenzyl)carbamoyl)phenyl)-furan-2-yl)methylene)-3-methyl-5-oxo-4,5-dihydro-1H-pyrazol-1-yl)benzoic Acid] |  |
| no RPA inhibition |  | CC1=NN(c2ccc(C(=O)O)cc2)C(=O)/C1=C\c1ccc(-c2ccc(Cl)c(C(=O)NCC3CC3)c2)o1 [Compound 34k, (Z)-4-(4-((5-(4-Chloro-3-((cyclopropylmethyl)carbamoyl)phenyl)-furan-2-yl)methylene)-3-methyl-5-oxo-4,5-dihydro-1H-pyrazol-1-yl)benzoic Acid] |  |

The next lines start with the compound.

| Compound | RPA inhibition [1] | solubility (in words) (Solubility) | XPA inhibitory activity (in words) (full length human XPA) |
| --- | --- | --- | --- |
| CC1=NN(c2ccc(Cl)c(C(=O)O)c2)C(=O)/C1=C\c1ccc(-c2ccc(Cl)c(C(=O)OCc3ccccc3)c2)o1 [Compound 22] | no RPA inhibition | poor solubility |  |
| CC1=NN(c2ccc(Cl)c(C(=O)O)c2)C(=O)/C1=C\c1ccc(-c2ccc(Cl)c(C(=O)OCc3ccccc3Cl)c2)o1 [Compound 24] | no RPA inhibition | poor solubility |  |
| CCOC(=O)c1cccc(N2N=C(C)/C(=C/c3ccc(-c4ccc(Cl)c(C(=O)NCc5ccc(F)cc5)c4)o3)C2=O)c1 [Compound 33a, (Z)-Ethyl 3-(4-((5-(4-Chloro-3-((4-fluorobenzyl)carbamoyl)phenyl)furan-2-yl)-methylene)-3-methyl-5-oxo-4,5-dihydro-1H-pyrazol-1-yl)benzoate] |  |  | dramatically decreased or almost no XPA inhibitory activity |
| CC1=NN(c2cccc(C(=O)NCC3CC3)c2)C(=O)/C1=C\c1ccc(-c2ccc(Cl)c(C(=O)NCC3CC3)c2)o1 [Compound 34e, (Z)-2-Chloro-N-(cyclopropylmethyl)-5-(5-((1-(3-((cyclopropylmethyl)carbamoyl)phenyl)-3-methyl-5-oxo-1H-pyrazol-4(5H)-ylidene)methyl)furan-2-yl)-benzamide] |  |  | dramatically decreased or almost no XPA inhibitory activity |
| CC1=NN(c2cccc(C(=O)O)c2)C(=O)/C1=C\c1ccc(-c2ccc(C(=O)NCc3ccc(F)cc3)cc2)o1 [Compound 39a, (Z)-3-(4-((5-(4-((4-Fluorobenzyl)carbamoyl)phenyl)furan-2-yl)-methylene)-3-methyl-5-oxo-4,5-dihydro-1H-pyrazol-1-yl)benzoic Acid] |  |  | no XPA inhibitory activity |
| CC1=NN(c2cccc(C(=O)O)c2)C(=O)/C1=C\c1ccc(-c2ccc(C(=O)NCC3CC3)cc2)o1 [Compound 39b, (Z)-3-(4-((5-(4-((Cyclopropylmethyl)carbamoyl)phenyl)furan-2-yl)methylene)-3-methyl-5-oxo-4,5-dihydro-1H-pyrazol-1-yl)benzoic Acid] |  |  | no XPA inhibitory activity |
